# In patent US20020119979A1, “Acyclic compounds and methods for treating multidrug resistance” (priority 2000, published 2002):
# Tested on: NIH-MDR1-G185 cells
# Assay: Fluorescent substrate (BODIPY-FL Taxol) accumulation assay
# Type: cell-based
# Conditions: BODIPY-FL taxol 500 nM, MDR modulator 10 micromolar, 40 min at 37° C.; fluorescence in NIH-MDR1-G185 cells in presence / absence of modulator
# Procedure: Fluorescent Substrate Accumulation Assay
# NIH-MDR1-GI 85 cells (obtained from M. Gottesman, NI1H) were harvested and resuspended in RPMI-1640 containing L-glutamine, 10% Cosmic Calf Serum and penicillin-streptomycin. Cell suspension aliquots of 175 microliters (1×10^5 cells) were added to individual wells of a 96 well microtiter plate and preincubated for 15 min at 37° C. with 20 microliters MDR modulator diluted in cell culture media to give a final concentration of 10 micromolar. Control wells received no modulating agent. BODIPY-FL Taxol (Molecular Probes, Eugene, Oreg.) was added to each well in 10 microliter aliquots to give a final concentration of 500 nM and cells were incubated for 40 min at 37° C. Cells were centrifuged at 100× g for 5 min at 4° C. and the cell pellet washed with 200 microliters cold PBS to remove fluorescent medium from wells. Cells were centrifuged once more, media removed, and cells resuspended in 200 microliters cold PBS. Fluorescence accumulation was measured in a fluorescence plate reader fitted with an excitation filter of 485 nm and an emission filter of 538 nm. BODIPY-FL taxol accumulation in the cells was calculated as follows:
# Accumulation Index=(fluorescence in NIH-MDR1-G185 cells in the presence of modulator)/(fluorescence in NIH-MDR1-G185 cells in absence of modulator) […]
structure (smiles),measurement,value
"O=C(CCCNC[C@@H](O)COc1cccc2ncccc12)NC(CCCc1ccccc1)CCCc1ccccc1 [Example 25, N-{1-[2-(R)-Hydroxy-3-(quinolin-5-yloxy)-propyl]}-4-aminobutyric acid [4-phenyl-1-(3-phenyl-propyl)-butyl]-amide]",Accumulation Index,10
